Assay in all cases: Antibacterial activity (MIC)
Common to all, as to assay type: cell-based

Experiment [1] relates to Achromobacter xylosoxidans. The text has this:
(§1) Regarding the products produced in the above mentioned Examples antibacterial activities against some microorganisms were obtained.

The test system of experiment [2] is Alcaligenes faecalis.
From the text: as §1

Experiment [3] has as its system Bacteroides fragilis.
From the text: as §1

The test system of experiment [4] is Escherichia coli.
From the text: as §1

The subject of experiment [5] is Klebsiella pneumoniae.
From the text: as §1

Experiment [6] has as its system Proteus mirabilis.
From the text: as §1

The test system of experiment [7] is Pseudomonas aeruginosa.
From the text: as §1

Experiment [8] deals with Pseudomonas cepacia. Particulars: Burkholderia cepacia.
From the text: as §1

The test system of experiment [9] is Pseudomonas maltophilia. The following applies: Stenotrophomonas maltophilia.
From the text: as §1

Experiment [10] deals with Serratia marcescens.
From the text: as §1

For experiment [11], the system named is Staphylococcus aureus.
From the text: as §1

Data on four molecules can be found in US4465631A, “5-Substituted-3-isoxazolecarboxylic acid derivatives” (Ajinomoto Company, Incorporated, priority 1982, dated 1984).

Each structure is given as a SMILES string. In brackets after ≈: the same amount, converted by molar mass. Where a name gives a salt, the structure may show the parent alone. Read-outs that look alike come from different tables or passages of the source. Bounds are passed on as bounds.

Turning to `CC1(C)S[C@@H]2[C@H](NC(=O)[C@H](NC(=O)c3cc(-c4cccs4)on3)c3ccccc3)C(=O)N2[C@H]1C(=O)O` [Example 8, D-α-[5-(2-thienyl)-isoxazole-3-carboxamido]-benzyl-penicillin sodium salt], the MIC – broadly, the lowest concentration that inhibits growth of the organism – in [1] was determined as 3.13 µg/mL; in experiment [2], 12.5 µg/mL; in experiment [3], 12.5 µg/mL; in [4] (read-out: MIC), 12.5 µg/mL; in experiment [5], 12.5 µg/mL; in [6] it was 0.78 µg/mL. Also, the MIC was 6.25 µg/mL in [7]; 6.25 µg/mL in [8]; 12.5 µg/mL in [9]; 25 µg/mL in [10]; no more than 0.1 µg/mL in experiment [11].

With `Cc1ccc(-c2cc(C(=O)N[C@@H](C(=O)N[C@@H]3C(=O)N4[C@@H]3SC(C)(C)[C@@H]4C(=O)O)c3ccccc3)no2)cc1` [Example 1, α-[5-(4-methylphenyl)-3-isoxazolecarboxamido]-benzylpenicillin], the minimum inhibitory concentration (MIC) came out at 1.56 µg/mL (≈ 2.92 µM) in [1]; 6.25 µg/mL (≈ 11.7 µM) in [2]; 6.25 µg/mL (≈ 11.7 µM) in experiment [3]; 12.5 µg/mL (≈ 23.4 µM) in experiment [4] (read-out: MIC); 6.25 µg/mL (≈ 11.7 µM) in experiment [5]; 0.78 µg/mL (≈ 1.46 µM) in [6]. Also, the MIC in [7] was 3.13 µg/mL (≈ 5.85 µM); in experiment [8], 3.13 µg/mL (≈ 5.85 µM); in experiment [9] it was 6.25 µg/mL (≈ 11.7 µM); in [10], 12.5 µg/mL (≈ 23.4 µM); in experiment [11], no more than 0.1 µg/mL.

Regarding `CC1(C)S[C@@H]2[C@H](NC(=O)C(C(=O)O)c3ccccc3)C(=O)N2[C@H]1C(=O)O` (some centres unmarked) [Carbenicillin, reference compound], the MIC was greater than 100 µg/mL in [1]; greater than 100 µg/mL in experiment [2]; greater than 100 µg/mL in experiment [3]; 12.5 µg/mL (≈ 33 µM) in experiment [4]; greater than 100 µg/mL in experiment [5]; 0.78 µg/mL (≈ 2.06 µM) in [6]. Further, the MIC in [7] was 25 µg/mL (≈ 66.1 µM); in [8] it was greater than 100 µg/mL; in experiment [9], greater than 100 µg/mL; in experiment [10] it was greater than 100 µg/mL; in experiment [11], 0.78 µg/mL (≈ 2.06 µM).

Turning to `COc1cccc(-c2cc(C(=O)N[C@@H](C(=O)N[C@@H]3C(=O)N4[C@@H]3SC(C)(C)[C@@H]4C(=O)O)c3ccccc3)no2)c1` [Example 3, D-α-(5-m-anisylisoxazole-3-carboxamido)-benzylpenicillin sodium salt], the MIC in experiment [1] is 3.13 µg/mL; in experiment [2], 6.25 µg/mL; in experiment [3] it was 12.5 µg/mL; in experiment [4] (read-out: MIC) it was 12.5 µg/mL; in experiment [5], 12.5 µg/mL; in experiment [6], 0.39 µg/mL. Also, the MIC in [7] is 6.25 µg/mL; in [8] it was 3.13 µg/mL; in experiment [9], 12.5 µg/mL; in experiment [10], 12.5 µg/mL; in experiment [11], 0.2 µg/mL.
